Experimental data: PubChem BioAssay AID1919003 (Molecular Pharmacology Branch, DTP, NCI, 2023)

Tested on: 786-0 complex spheroids with HUVEC/MSC, growth % test/control
Test: Anticancer human tumor 786-0 cell line growth inhibition [AhR];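 also: compound exposure lasted seven days before the read-out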
Details: for IC50: curve of first compound; for viability, T/C: stronger effect = lower value
In short: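 Spheroids combined tumor cells with HUVEC endothelial cells and human MSCs as stroma. AhR antagonists were paired with standard or investigational drugs, each dosed in half-log steps down from near clinical Cmax, or from 10 microM where Cmax was unknown.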

[1] = second compound 0.1 µM, first compound 0.0316 µM
[2] = second compound 0.1 µM, first compound 0.1 µM
[3] = second compound 0.1 µM, first compound 0.316 µM
[4] = second compound 0.1 µM, first compound 1 µM
[5] = second compound 0.316 µM, first compound 0.0316 µM
[6] = second compound 0.316 µM, first compound 0.1 µM
[7] = second compound 0.316 µM, first compound 0.316 µM
[8] = second compound 0.316 µM, first compound 1 µM
[9] = second compound 1 µM, first compound 0.0316 µM
[10] = second compound 1 µM, first compound 0.1 µM
[11] = second compound 1 µM, first compound 0.316 µM
[12] = second compound 1 µM, first compound 1 µM
[13] = second compound 3.16 µM, first compound 0.0316 µM
[14] = second compound 3.16 µM, first compound 0.1 µM
[15] = second compound 3.16 µM, first compound 0.316 µM
[16] = second compound 3.16 µM, first compound 1 µM
[17] = second compound 10 µM, first compound 0.0316 µM
[18] = second compound 10 µM, first compound 0.1 µM
[19] = second compound 10 µM, first compound 0.316 µM
[20] = second compound 10 µM, first compound 1 µM
[21] = second compound 0.1 µM, first compound 0.00949 µM
[22] = second compound 0.1 µM, first compound 0.03 µM
[23] = second compound 0.1 µM, first compound 0.0949 µM
[24] = second compound 0.1 µM, first compound 0.3 µM
[25] = second compound 0.1 µM, first compound 0.949 µM
[26] = second compound 0.1 µM, first compound 3 µM
[27] = second compound 0.316 µM, first compound 0.00949 µM
[28] = second compound 0.316 µM, first compound 0.03 µM
[29] = second compound 0.316 µM, first compound 0.0949 µM
[30] = second compound 0.316 µM, first compound 0.3 µM
[31] = second compound 0.316 µM, first compound 0.949 µM
[32] = second compound 0.316 µM, first compound 3 µM
[33] = second compound 1 µM, first compound 0.00949 µM
[34] = second compound 1 µM, first compound 0.03 µM
[35] = second compound 1 µM, first compound 0.0949 µM
[36] = second compound 1 µM, first compound 0.3 µM
[37] = second compound 1 µM, first compound 0.949 µM
[38] = second compound 1 µM, first compound 3 µM
[39] = second compound 3.16 µM, first compound 0.00949 µM
[40] = second compound 3.16 µM, first compound 0.03 µM
[41] = second compound 3.16 µM, first compound 0.0949 µM
[42] = second compound 3.16 µM, first compound 0.3 µM
[43] = second compound 3.16 µM, first compound 0.949 µM
[44] = second compound 3.16 µM, first compound 3 µM
[45] = second compound 10 µM, first compound 0.00949 µM
[46] = second compound 10 µM, first compound 0.03 µM
[47] = second compound 10 µM, first compound 0.0949 µM
[48] = second compound 10 µM, first compound 0.3 µM
[49] = second compound 10 µM, first compound 0.949 µM
[50] = second compound 10 µM, first compound 3 µM

SMILES: CC1COCCN1c1cc(-c2ccnn2C)c2ccnc(-c3ccn[nH]3)c2n1 (stereo not given) + Cc1cncc(-c2nc(NCCc3c[nH]c4ccccc34)c3ncn(C(C)C)c3n2)c1
- IC50 (second compound 0.1 µM): 192 nM
- IC50 (second compound 0.316 µM): 192 nM
- IC50 (second compound 1 µM): 150 nM
- IC50 (second compound 3.16 µM): 49.8 nM
- IC50 (second compound 10 µM): < 3.16 nM
- viability, T/C (second compound 0.1 µM, first compound 0.00316 µM): 106%
- viability, T/C (second compound 0.1 µM, first compound 0.01 µM): 114%
- viability, T/C [1]: 108%
- viability, T/C [2]: 89.9%
- viability, T/C [3]: 19.7%
- viability, T/C [4]: 6.85%
- viability, T/C (second compound 0.316 µM, first compound 0.00316 µM): 119%
- viability, T/C (second compound 0.316 µM, first compound 0.01 µM): 118%
- viability, T/C [5]: 116%
- viability, T/C [6]: 88.4%
- viability, T/C [7]: 20.5%
- viability, T/C [8]: 7.37%
- viability, T/C (second compound 1 µM, first compound 0.00316 µM): 106%
- viability, T/C (second compound 1 µM, first compound 0.01 µM): 104%
- viability, T/C [9]: 100%
- viability, T/C [10]: 69%
- viability, T/C [11]: 15%
- viability, T/C [12]: 5.51%
- viability, T/C (second compound 3.16 µM, first compound 0.00316 µM): 74.9%
- viability, T/C (second compound 3.16 µM, first compound 0.01 µM): 74.9%
- viability, T/C [13]: 65%
- viability, T/C [14]: 26.9%
- viability, T/C [15]: 4.19%
- viability, T/C [16]: 2.86%
- viability, T/C (second compound 10 µM, first compound 0.00316 µM): 8.14%
- viability, T/C (second compound 10 µM, first compound 0.01 µM): 10.1%
- viability, T/C [17]: 7.76%
- viability, T/C [18]: 1.45%
- viability, T/C [19]: 0.29%
- viability, T/C [20]: 0.46%

SMILES: CC1COCCN1c1cc(C2(S(C)(=N)=O)CC2)nc(-c2ccnc3[nH]ccc23)n1 (stereo not given) + Cc1cncc(-c2nc(NCCc3c[nH]c4ccccc34)c3ncn(C(C)C)c3n2)c1
- IC50 (second compound 0.1 µM): 7110 nM
- IC50 (second compound 0.316 µM): 6480 nM
- IC50 (second compound 1 µM): 4840 nM
- IC50 (second compound 3.16 µM): 1230 nM
- IC50 (second compound 10 µM): < 31.6 nM
- viability, T/C [1]: 107%
- viability, T/C [2]: 118%
- viability, T/C [3]: 116%
- viability, T/C [4]: 113%
- viability, T/C (second compound 0.1 µM, first compound 3.16 µM): 97.7%
- viability, T/C (second compound 0.1 µM, first compound 10 µM): 29.8%
- viability, T/C [5]: 122%
- viability, T/C [6]: 117%
- viability, T/C [7]: 112%
- viability, T/C [8]: 108%
- viability, T/C (second compound 0.316 µM, first compound 3.16 µM): 91.9%
- viability, T/C (second compound 0.316 µM, first compound 10 µM): 25.3%
- viability, T/C [9]: 100%
- viability, T/C [10]: 110%
- viability, T/C [11]: 105%
- viability, T/C [12]: 125%
- viability, T/C (second compound 1 µM, first compound 3.16 µM): 67%
- viability, T/C (second compound 1 µM, first compound 10 µM): 20.9%
- viability, T/C [13]: 62.4%
- viability, T/C [14]: 64.5%
- viability, T/C [15]: 69%
- viability, T/C [16]: 53.6%
- viability, T/C (second compound 3.16 µM, first compound 3.16 µM): 26.9%
- viability, T/C (second compound 3.16 µM, first compound 10 µM): 5.56%
- viability, T/C [17]: 18.2%
- viability, T/C [18]: 18.7%
- viability, T/C [19]: 20.6%
- viability, T/C [20]: 17.5%
- viability, T/C (second compound 10 µM, first compound 3.16 µM): 3.02%
- viability, T/C (second compound 10 µM, first compound 10 µM): 0.89%

SMILES: CCN(c1cc(-c2ccc(CN3CCOCC3)cc2)cc(C(=O)NCc2c(C)cc(C)[nH]c2=O)c1C)C1CCOCC1 + Cc1cncc(-c2nc(NCCc3c[nH]c4ccccc34)c3ncn(C(C)C)c3n2)c1
- IC50 (second compound 0.1 µM): > 3000 nM
- IC50 (second compound 0.316 µM): > 3000 nM
- IC50 (second compound 1 µM): > 3000 nM
- IC50 (second compound 3.16 µM): > 3000 nM
- IC50 (second compound 10 µM): < 9.49 nM
- viability, T/C [21]: 121%
- viability, T/C [22]: 119%
- viability, T/C [23]: 112%
- viability, T/C [24]: 121%
- viability, T/C [25]: 120%
- viability, T/C [26]: 131%
- viability, T/C [27]: 125%
- viability, T/C [28]: 120%
- viability, T/C [29]: 128%
- viability, T/C [30]: 131%
- viability, T/C [31]: 131%
- viability, T/C [32]: 138%
- viability, T/C [33]: 113%
- viability, T/C [34]: 118%
- viability, T/C [35]: 113%
- viability, T/C [36]: 114%
- viability, T/C [37]: 126%
- viability, T/C [38]: 127%
- viability, T/C [39]: 75.8%
- viability, T/C [40]: 73.8%
- viability, T/C [41]: 79.2%
- viability, T/C [42]: 73.5%
- viability, T/C [43]: 74.4%
- viability, T/C [44]: 76.9%
- viability, T/C [45]: 16%
- viability, T/C [46]: 14.8%
- viability, T/C [47]: 23.9%
- viability, T/C [48]: 14.8%
- viability, T/C [49]: 4.25%
- viability, T/C [50]: 0.53%

SMILES: Nc1ncn(C2CC(O)C(CO)S2)c(=O)n1 (stereo not given) + Cc1cncc(-c2nc(NCCc3c[nH]c4ccccc34)c3ncn(C(C)C)c3n2)c1
- IC50 (second compound 0.1 µM): > 300 nM
- IC50 (second compound 0.316 µM): > 300 nM
- IC50 (second compound 1 µM): > 300 nM
- IC50 (second compound 3.16 µM): 22.3 nM
- IC50 (second compound 10 µM): < 0.949 nM
- viability, T/C (second compound 0.1 µM, first compound 0.000949 µM): 120%
- viability, T/C (second compound 0.1 µM, first compound 0.003 µM): 123%
- viability, T/C [21]: 122%
- viability, T/C [22]: 118%
- viability, T/C [23]: 94.2%
- viability, T/C [24]: 82.7%
- viability, T/C (second compound 0.316 µM, first compound 0.000949 µM): 121%
- viability, T/C (second compound 0.316 µM, first compound 0.003 µM): 117%
- viability, T/C [27]: 121%
- viability, T/C [28]: 110%
- viability, T/C [29]: 94.7%
- viability, T/C [30]: 79.3%
- viability, T/C (second compound 1 µM, first compound 0.000949 µM): 101%
- viability, T/C (second compound 1 µM, first compound 0.003 µM): 102%
- viability, T/C [33]: 94.3%
- viability, T/C [34]: 90.3%
- viability, T/C [35]: 61.1%
- viability, T/C [36]: 57.6%
- viability, T/C (second compound 3.16 µM, first compound 0.000949 µM): 69.2%
- viability, T/C (second compound 3.16 µM, first compound 0.003 µM): 65.2%
- viability, T/C [39]: 59.8%
- viability, T/C [40]: 46.6%
- viability, T/C [41]: 40.4%
- viability, T/C [42]: 39.9%
- viability, T/C (second compound 10 µM, first compound 0.000949 µM): 17.2%
- viability, T/C (second compound 10 µM, first compound 0.003 µM): 14.9%
- viability, T/C [45]: 22%
- viability, T/C [46]: 15.6%
- viability, T/C [47]: 10.9%
- viability, T/C [48]: 9.94%

SMILES: O=C(C=Cn1cnc(-c2cc(C(F)(F)F)cc(C(F)(F)F)c2)n1)NNc1cnccn1 + Cc1cncc(-c2nc(NCCc3c[nH]c4ccccc34)c3ncn(C(C)C)c3n2)c1
- IC50 (second compound 0.1 µM): 736 nM
- IC50 (second compound 0.316 µM): 619 nM
- IC50 (second compound 1 µM): 562 nM
- IC50 (second compound 3.16 µM): 412 nM
- IC50 (second compound 10 µM): < 9.49 nM
- viability, T/C [21]: 118%
- viability, T/C [22]: 125%
- viability, T/C [23]: 134%
- viability, T/C [24]: 75.5%
- viability, T/C [25]: 50.2%
- viability, T/C [26]: 20.5%
- viability, T/C [27]: 130%
- viability, T/C [28]: 142%
- viability, T/C [29]: 151%
- viability, T/C [30]: 76%
- viability, T/C [31]: 49.4%
- viability, T/C [32]: 19.9%
- viability, T/C [33]: 127%
- viability, T/C [34]: 131%
- viability, T/C [35]: 129%
- viability, T/C [36]: 67.5%
- viability, T/C [37]: 44.9%
- viability, T/C [38]: 19.9%
- viability, T/C [39]: 116%
- viability, T/C [40]: 146%
- viability, T/C [41]: 131%
- viability, T/C [42]: 57.6%
- viability, T/C [43]: 37.6%
- viability, T/C [44]: 21.9%
- viability, T/C [45]: 12.7%
- viability, T/C [46]: 18.3%
- viability, T/C [47]: 11.7%
- viability, T/C [48]: 4.08%
- viability, T/C [49]: 5.46%
- viability, T/C [50]: 4.69%
